Assays:
Assay in all cases: Test E greenhouse herbicide test, pre- and postemergence
Format in all cases: in vivo
Conditions in all cases: Preemergence
[1] = tested on: panicum, fall (fall panicum, Panicum dichotomiflorum)
Source text: (§1) Seeds of plant species selected from corn (Zea mays), soybean (Glycine max), velvetleaf (Abutilon theophrasti), lambsquarters (Chenopodium album), wild poinsettia (Euphorbia heterophylla), pigweed, palmer (palmer pigweed, Amaranthus palmeri), waterhemp (common waterhemp, Amaranthus rudis), surinam grass (Brachiaria decumbens), crabgrass, large (large crabgrass, Digitaria sanguinalis), crabgrass, Brazilian (Brazilian crabgrass, Digitaria horizontalis), panicum, fall (fall panicum, Panicum dichotomiflorum), foxtail, giant (giant foxtail, Setaria faberii), foxtail, green (green foxtail, Setaria viridis), goosegrass (Eleusine indica), johnsongrass (Sorghum halepense), ragweed (common ragweed, Ambrosia elatior), barnyardgrass (Echinochloa crus-galli), sandbur (southem sandbur, Cenchrus echinatus), arrowleaf sida (Sida rhombifolia), Italian ryegrass (Lolium multiflorum), dayflower (Virginia (VA) dayflower, Commelina virginica), field bindweed (Convolvulus arvensis), momingglory (Ipomoea coccinea), nightshade (eastern black nightshade, Solanum ptycanthum), kochia (Kochia scoparia), nutsedge, yellow (yellow nutsedge, Cyperus esculentus), horseweed (Conyza canadensis), and beggarticks (hairy beggarticks, Bidens pilosa), were planted into a silt loam soil and treated preemergence with test chemicals formulated in a non-phytotoxic solvent mixture which included a surfactant.
(§2) At the same time, plants from these crop and weed species and also waterhemp_RES1, (ALS & Triazine resistant common waterhemp, Amaranthus rudis), and waterhemp_RES2, (ALS & HPPD resistant common waterhemp, Amaranthus rudis) were planted in pots containing Redi-Earth® planting medium (Scotts Company, 14111 Scottslawn Road, Marysville, Ohio 43041) comprising spaghnum peat moss, vermiculite, wetting agent and starter nutrients were treated with postemergence applications of test chemicals formulated in the same manner. Plants ranged in height from 2 to 18 cm for postemergence treatments (1- to 4-leaf stage). Treated plants and controls were maintained in a greenhouse for 14 to 21 d, after which time all species were compared to controls and visually evaluated. Plant response ratings, summarized in Table E, are based on a scale of 0 to 100 where 0 is no effect and 100 is complete control. A dash (-) response means no test result.

[2] = tested on: crabgrass, large (large crabgrass, Digitaria sanguinalis)
Source text: as §1, §2

corn (Zea mays) = tested on: corn (Zea mays)
Source text: as §1, §2

[3] = tested on: lambsquarters (Chenopodium album)
Source text: as §1, §2

[4] = tested on: velvetleaf (Abutilon theophrasti)
Source text: as §1, §2

[5] = tested on: crabgrass, Brazilian (Brazilian crabgrass, Digitaria horizontalis)
Source text: as §1, §2

[6] = tested on: nutsedge, yellow (yellow nutsedge, Cyperus esculentus)
Source text: as §1, §2

kochia (Kochia scoparia) = tested on: kochia (Kochia scoparia)
Source text: as §1, §2

soybean (Glycine max) = tested on: soybean (Glycine max)
Source text: as §1, §2

[7] = tested on: dayflower (Virginia (VA) dayflower, Commelina virginica)
Source text: as §1, §2

[8] = tested on: pigweed, palmer (palmer pigweed, Amaranthus palmeri)
Source text: as §1, §2

[9] = tested on: sandbur (southem sandbur, Cenchrus echinatus)
Source text: as §1, §2

[10] = tested on: foxtail, green (green foxtail, Setaria viridis)
Source text: as §1, §2

[11] = tested on: johnsongrass (Sorghum halepense)
Source text: as §1, §2

[12] = tested on: foxtail, giant (giant foxtail, Setaria faberii)
Source text: as §1, §2

[13] = 62 g ai/ha, scale 0 to 100 (0 no effect, 100 complete control)
[14] = 125 g ai/ha, scale 0 to 100 (0 no effect, 100 complete control)
[15] = 31 g ai/ha, scale 0 to 100, 0 no effect, 100 complete control
[16] = 250 g ai/ha, visual, scale 0 no effect to 100 complete control
[17] = 125 g ai/ha, visual, scale 0 no effect to 100 complete control
[18] = 16 g ai/ha, scale 0 to 100, 0 no effect, 100 complete control

With `Cc1ccc2ccccc2c1-c1c(O)c(I)nn(C)c1=O` [Compound 29] the “Plant response rating, Panicum, Fall” value [1, 13] was 95, the “Plant response rating, Panicum, Fall” value [1, 14] was 98 and the “Plant response rating, Panicum, Fall” value [1, 15] was 85. For the same compound, the “Plant response rating, Panicum, Fall” value [1, 16] was 98, the “Plant response rating, Crabgrass, Large” value [2, 13] was 25 and the “Plant response rating, Crabgrass, Large” value [2, 15] was 0. For the same compound, the “Plant response rating, Crabgrass, Large” value [2, 17] was 40, the “Plant response rating, Crabgrass, Large” value [2, 16] was 65 and the “Plant response rating, Corn” value (corn (Zea mays); [13]) was 0. For the same compound, the “Plant response rating, Corn” value (corn (Zea mays); [15]) was 0, the “Plant response rating, Corn” value (corn (Zea mays); [17]) was 0 and the “Plant response rating, Corn” value (corn (Zea mays); [16]) was 0. For the same compound, the “Plant response rating, Lambsquarters” value [3, 13] was 100, the “Plant response rating, Lambsquarters” value [3, 15] was 100 and the “Plant response rating, Lambsquarters” value [3, 17] was 100. The “Plant response rating, Lambsquarters” value [3, 16] was 98, the “Plant response rating, Velvetleaf” value [4, 13] was 95 and the “Plant response rating, Velvetleaf” value [4, 14] was 100. The “Plant response rating, Velvetleaf” value [4, 15] was 70, the “Plant response rating, Velvetleaf” value [4, 16] was 100 and the “Plant response rating, Crabgrass, Brazil” value [5, 13] was 75. The “Plant response rating, Crabgrass, Brazil” value [5, 15] was 30, the “Plant response rating, Crabgrass, Brazil” value [5, 17] was 70 and the “Plant response rating, Crabgrass, Brazil” value [5, 16] was 90. For the same compound, the “Plant response rating, Nutsedge, Yellow” value [6, 13] was 0, the “Plant response rating, Nutsedge, Yellow” value [6, 14] was 30 and the “Plant response rating, Nutsedge, Yellow” value [6, 15] was 0. The “Plant response rating, Nutsedge, Yellow” value [6, 16] was 70, the “Plant response rating, Kochia” value (kochia (Kochia scoparia); [13]) was 0 and the “Plant response rating, Kochia” value (kochia (Kochia scoparia); [15]) was 0. For the same compound, the “Plant response rating, Kochia” value (kochia (Kochia scoparia); [17]) was 25, the “Plant response rating, Kochia” value (kochia (Kochia scoparia); [16]) was 70 and the “Plant response rating, Soybean” value (soybean (Glycine max); [13]) was 50. The “Plant response rating, Soybean” value (soybean (Glycine max); [14]) was 70, the “Plant response rating, Soybean” value (soybean (Glycine max); [15]) was 70 and the “Plant response rating, Soybean” value (soybean (Glycine max); [16]) was 50. The “Plant response rating, Dayflower, VA” value [7, 13] was 0, the “Plant response rating, Dayflower, VA” value [7, 15] was 0 and the “Plant response rating, Dayflower, VA” value [7, 17] was 10. The “Plant response rating, Dayflower, VA” value [7, 16] was 60, the “Plant response rating, Pigweed, Palmer” value [8, 13] was 70 and the “Plant response rating, Pigweed, Palmer” value [8, 14] was 100. For the same compound, the “Plant response rating, Pigweed, Palmer” value [8, 15] was 90, the “Plant response rating, Pigweed, Palmer” value [8, 16] was 100 and the “Plant response rating, Sandbur” value [9, 13] was 75. The “Plant response rating, Sandbur” value [9, 14] was 90, the “Plant response rating, Sandbur” value [9, 15] was 75 and the “Plant response rating, Sandbur” value [9, 16] was 90. The “Plant response rating, Foxtail, Green” value [10, 13] was 75, the “Plant response rating, Foxtail, Green” value [10, 15] was 65 and the “Plant response rating, Foxtail, Green” value [10, 17] was 90. The “Plant response rating, Foxtail, Green” value [10, 16] was 100, the “Plant response rating, Johnsongrass” value [11, 13] was 70 and the “Plant response rating, Johnsongrass” value [11, 15] was 70. The “Plant response rating, Johnsongrass” value [11, 17] was 65, the “Plant response rating, Johnsongrass” value [11, 16] was 100 and the “Plant response rating, Foxtail, Giant” value [12, 13] was 80. The “Plant response rating, Foxtail, Giant” value [12, 15] was 70, the “Plant response rating, Foxtail, Giant” value [12, 17] was 95 and the “Plant response rating, Foxtail, Giant” value [12, 16] was 98.
In the case of `COC(=O)Oc1c(C)nn(C)c(=O)c1-c1c(C)sc2ccc(C)cc12` [Compound 80], the “Plant response rating, Panicum, Fall” value [1, 13] is reported as 95, the “Plant response rating, Panicum, Fall” value [1, 14] is reported as 98 and the “Plant response rating, Panicum, Fall” value [1, 18] is reported as 80. For the same compound, the “Plant response rating, Panicum, Fall” value [1, 15] was 90, the “Plant response rating, Crabgrass, Large” value [2, 13] was 35 and the “Plant response rating, Crabgrass, Large” value [2, 14] was 35. The “Plant response rating, Crabgrass, Large” value [2, 18] was 0, the “Plant response rating, Crabgrass, Large” value [2, 15] was 0 and the “Plant response rating, Corn” value (corn (Zea mays); [13]) was 0. For the same compound, the “Plant response rating, Corn” value (corn (Zea mays); [14]) was 0, the “Plant response rating, Corn” value (corn (Zea mays); [18]) was 0 and the “Plant response rating, Corn” value (corn (Zea mays); [15]) was 0. For the same compound, the “Plant response rating, Lambsquarters” value [3, 13] was 98, the “Plant response rating, Lambsquarters” value [3, 14] was 100 and the “Plant response rating, Lambsquarters” value [3, 18] was 65. The “Plant response rating, Lambsquarters” value [3, 15] was 100, the “Plant response rating, Velvetleaf” value [4, 13] was 70 and the “Plant response rating, Velvetleaf” value [4, 14] was 90. For the same compound, the “Plant response rating, Velvetleaf” value [4, 18] was 0, the “Plant response rating, Velvetleaf” value [4, 15] was 20 and the “Plant response rating, Crabgrass, Brazil” value [5, 13] was 90. For the same compound, the “Plant response rating, Crabgrass, Brazil” value [5, 14] was 100, the “Plant response rating, Crabgrass, Brazil” value [5, 18] was 65 and the “Plant response rating, Crabgrass, Brazil” value [5, 15] was 75. The “Plant response rating, Nutsedge, Yellow” value [6, 13] was 40, the “Plant response rating, Nutsedge, Yellow” value [6, 14] was 35 and the “Plant response rating, Nutsedge, Yellow” value [6, 18] was 5. The “Plant response rating, Nutsedge, Yellow” value [6, 15] was 10, the “Plant response rating, Kochia” value (kochia (Kochia scoparia); [13]) was 100 and the “Plant response rating, Kochia” value (kochia (Kochia scoparia); [14]) was 100. For the same compound, the “Plant response rating, Kochia” value (kochia (Kochia scoparia); [18]) was 25, the “Plant response rating, Kochia” value (kochia (Kochia scoparia); [15]) was 90 and the “Plant response rating, Soybean” value (soybean (Glycine max); [13]) was 0. For the same compound, the “Plant response rating, Soybean” value (soybean (Glycine max); [14]) was 0, the “Plant response rating, Soybean” value (soybean (Glycine max); [18]) was 0 and the “Plant response rating, Soybean” value (soybean (Glycine max); [15]) was 0. The “Plant response rating, Dayflower, VA” value [7, 13] was 0, the “Plant response rating, Dayflower, VA” value [7, 14] was 10 and the “Plant response rating, Dayflower, VA” value [7, 18] was 0. For the same compound, the “Plant response rating, Dayflower, VA” value [7, 15] was 0, the “Plant response rating, Pigweed, Palmer” value [8, 13] was 70 and the “Plant response rating, Pigweed, Palmer” value [8, 14] was 70. The “Plant response rating, Pigweed, Palmer” value [8, 18] was 20, the “Plant response rating, Pigweed, Palmer” value [8, 15] was 35 and the “Plant response rating, Sandbur” value [9, 13] was 70. For the same compound, the “Plant response rating, Sandbur” value [9, 14] was 75, the “Plant response rating, Sandbur” value [9, 18] was 0 and the “Plant response rating, Sandbur” value [9, 15] was 65. For the same compound, the “Plant response rating, Foxtail, Green” value [10, 13] was 50, the “Plant response rating, Foxtail, Green” value [10, 14] was 65 and the “Plant response rating, Foxtail, Green” value [10, 18] was 0. The “Plant response rating, Foxtail, Green” value [10, 15] was 15, the “Plant response rating, Johnsongrass” value [11, 13] was 80 and the “Plant response rating, Johnsongrass” value [11, 14] was 80. The “Plant response rating, Johnsongrass” value [11, 15] was 0, the “Plant response rating, Foxtail, Giant” value [12, 13] was 80 and the “Plant response rating, Foxtail, Giant” value [12, 14] was 85. For the same compound, the “Plant response rating, Foxtail, Giant” value [12, 18] was 0 and the “Plant response rating, Foxtail, Giant” value [12, 15] was 50.

Source: patent US10597388B2, “Pyridazinone herbicides” (FMC CORPORATION, priority 2014, dated 2020)
